Data on 12 compounds can be found in patent publication US5569471A, “Medicine for the treatment of tumor” (priority 1993, dated 1996).

For data set [1], the system named is T-ALL cells. The experiment in a line: Test for confirming the effect of enhancing antitumor activity by successive dosage. To be noted: FIG. 3. The data set is classed as cell-based, human. On the procedure:
The tumor cell killing effect was investigated by successively administering 4-piperidino-piperidine and an antitumor drug to T-ALL cells.
First, T-ALL cells were cultured in a plurality of culture media containing 4-piperidino-piperidine at different concentrations (2.5, 12.5, 25 and 50 μg/ml) for 6 days. […] The results are shown in FIG. 3, which employes a relative expression where the number of lethal cells in the standard cell groups was taken as 100% (shown by a horizontal perforated line). The numbers 1, 2, 3 and 4 given for each drug indicate that the concentration of 4-piperidino-piperidine used for the culture is 2.5, 12.5, 25 and 50 μg/ml, respectively.

The subject of data set [2] is human myeloblastic leukemia cells (K-562). The experiment in a line: Test for confirming the effect of enhancing antitumor activity by a simultaneous dosage, K-562 cells. The data set is classed as cell-based. To be noted: 4-piperidino-piperidine 2.5 μg/ml simultaneously; drug doses of Table 3; FIG. 5. Here is the method:
(§1) The numbers of the lethal cells were counted in cases where 4-piperidino-piperidine (2.5 μg/ml) and each of the ten kinds of the antitumor drugs listed in Table 3 were simultaneously dosed (in small amounts and large amounts for each drug), and where the ten kinds of the antitumor drugs were independently and singly dosed (in small amounts and large amounts for each drug).
(§2) The procedure of Example 9 was repeated by using human myeloblastic leukemia cells (K-562) in place of the T-ALL cells.

For data set [3], the system named is T-ALL cells. The data set can be described thus: Test for confirming the effect of enhancing antitumor activity by a simultaneous dosage, T-ALL cells. Type of data set: cell-based, human. The following applies: 4-piperidino-piperidine 2.5 μg/ml simultaneously, FIG. 4. On the procedure: as §1, §2
The test system of data set [4] is T-cells derived from human acute leukemia (RPMI-8402, T-ALL cells). The data set can be described thus: Test for confirming the inhibitory effect on tumor cell propagation (6-day culture, counting of lethal and propagated cells). The following applies: 2.5, 12.5, 25, 50, 80 and 100 μg/ml, FIG. 1. The data set is classed as cell-based. On the procedure: To samples of T-cells derived from human acute leukemia (RPMI-8402, T-ALL cells, see Minowada, J. and Moore, G. E., In Comparative Leukemia Research, Eds. Ito, Y. and Dutcher, R. M., Univ. Tokyo Press, Tokyo, pp. 251-261, 1975), 4-piperidino-piperidine (4-PP) in various concentrations was added (0, 2.5, 12.5, 25, 50, 80 and 100 μg/ml). After a 6-day culture, lethal cells and propagated cells were counted.

The test system of data set [5] is cisplatin-resistant human myeloid leukemia cells (K-562). The data set can be described thus: Test for confirming the resistance dissolving effect, cisplatin-resistant cells. Type of data set: cell-based. The following applies: FIG. 2; for cell killing effect, single dose: 4-piperidino-piperidine 2.5 μg/ml alone, cisplatin 1 alone, vs control. From the text:
As drug-fast cells, two kinds of human myeloid leukemia cells (K-562) which had acquired drug resistance against adriamycin (ADR) and cisplatin were used (see Kaoru MIURA, et al., "NK and LAK cell sensitivity and HLA expression" 51st Conference of Japan Cancer Association, page 252, 1992; and Nobutaka IMAIZUMI, Yoichiro KUSUKI, Chie KAWACHI, et al., "Establishing adriamycin-resistant strains and review on the mechanism of resistance", Oncologoa, 21, 89-94, 1988). In the test, adriamycin (ADR), cisplatin, and 4-piperidino-piperidine were dosed singly or in combination against the two kinds of the drug-fast cells, and the number of the lethal cells were counted.

The nature of data set [6]: Toxicity test. To be noted: in vivo; species and route not given. On the procedure:
The LD50 value of 4-piperidino-piperidine is about 200 to 300 mg/kg. Therefore, ordinary dose will not cause any risk.

[7] abbreviates: in the concentration of 0.05 μg/ml.
[8] abbreviates: 4-piperidino-piperidine precedently dosed, all concentration groups (2.5, 12.5, 25 and 50 μg/ml), ACR 0.05, MTX 0.01 μg/ml.
Setting [9] is: both drug concentrations (DNR 0.01/0.05, ACR 0.05/0.1, 5-FU 5/10 μg/ml).
Setting [10] is: 4-piperidino-piperidine precedently dosed at 12.5, 25 and 50 μg/ml, DNR 0.05, 5-FU 10 μg/ml.

Entries after “also recorded” stand apart in the source; their conditions may differ.

In the case of `CCc1c2c(nc3ccc(OC(=O)N4CCC(N5CCCCC5)CC4)cc13)-c1cc3c(c(=O)n1C2)COC(=O)[C@]3(O)CC` [CPT-11, 7-Ethyl-10-piperidino-piperidinocarboxycamptothecin], the “enhancement of antitumor drug effect (lethal cells relative to standard cells)” value in data set [1] (4-piperidino-piperidine precedently dosed at 25 and 50 μg/ml, CPT-11 10 μg/ml) is reported as “enhanced”.
For `COc1cccc2c1C(=O)c1c(O)c3c(c(O)c1C2=O)C[C@@](O)(C(=O)CO)C[C@@H]3O[C@H]1C[C@H](N)[C@H](O)[C@H](C)O1` [ADR], the “enhancement of antitumor activity by combined use with 4-piperidino-piperidine” value (shortened to “enhancement of antitumor activity”) in data set [2] and in data set [3] (setting [7]) was “enhanced” each time.
For `CN(Cc1cnc2nc(N)nc(N)c2n1)c1ccc(C(=O)N[C@@H](CCC(=O)O)C(=O)O)cc1` [MTX], the “enhancement of antitumor drug effect (lethal cells relative to standard cells)” value in data set [1] (setting [8]) is reported as “enhanced effects”. Further, the “enhancement of antitumor activity” value in data set [2] is given as “enhanced”.
Regarding `CC[C@]1(O)C[C@@H]2CN(CCc3c([nH]c4ccccc34)[C@@](C(=O)OC)(c3cc4c(cc3OC)N(C)[C@H]3[C@@](O)(C(N)=O)[C@H](O)[C@]5(CC)C=CCN6CC[C@]43[C@@H]65)C2)C1` [VDS], the “enhancement of antitumor activity” value in data set [2] and in data set [3] (setting [7]) was “enhanced” throughout.
As to `CCC1(O)CC(OC2CC(N(C)C)C(OC3CC(O)C(OC4CCC(=O)C(C)O4)C(C)O3)C(C)O2)c2c(cc3c(c2O)C(=O)c2c(O)cccc2C3=O)C1C(=O)OC` (stereo not shown) [ACR], the “enhancement of antitumor drug effect (lethal cells relative to standard cells)” value in data set [1] (setting [8]) is recorded as “enhanced effects”. Moreover, the “enhancement of antitumor activity” value in data set [3] (setting [9]) is listed as “enhanced”.
On to `COc1cccc2c1C(=O)c1c(O)c3c(c(O)c1C2=O)C[C@@](O)(C(C)=O)C[C@@H]3O[C@H]1C[C@H](N)[C@H](O)[C@H](C)O1` [DNR], for which the “enhancement of antitumor drug effect (lethal cells relative to standard cells)” value in data set [1] (setting [10]) is “enhanced effects”. Besides, the “enhancement of antitumor activity” value in data set [2] and in data set [3] (setting [9]) was “enhanced” throughout.
As to `COc1cc([C@@H]2c3cc4c(cc3[C@@H](O[C@@H]3O[C@@H]5CO[C@@H](C)O[C@H]5[C@H](O)[C@H]3O)[C@H]3COC(=O)[C@H]23)OCO4)cc(OC)c1O` [etoposide], the “enhancement of antitumor activity” value in data set [2] is given as “enhanced”.
`CC[C@]1(O)C[C@H]2CN(CCc3c([nH]c4ccccc34)[C@@](C(=O)OC)(c3cc4c(cc3OC)N(C=O)[C@H]3[C@@](O)(C(=O)OC)[C@H](OC(C)=O)[C@]5(CC)C=CCN6CC[C@]43[C@@H]65)C2)C1` [VCR]: the “enhancement of antitumor activity” value in data set [2] is on record as “enhanced”.
On to `C1CCN(C2CCNCC2)CC1` [4-piperidino-piperidine], for which the “number of propagated cells” value in data set [4] is given as “decreased in a dose-dependent manner”. The “number of lethal cells (tumor cell killing effect)” value in data set [4] (vs control) is on record as “does not have tumor cell killing effect per se; also recorded: not significantly different from the count of the control group”. In data set [5], the “cell killing effect, single dose” value is recorded as “almost the same cell killing effect as that of the control group”. Further, the “cell killing effect, simultaneous dose (resistance dissolving)” value in data set [5] (cisplatin and 4-piperidino-piperidine simultaneously dosed, compared with each dosed singly) is given as “significantly enhanced”. This compound displayed a median lethal dose (LD50) in data set [6] of 200 to 300 mg/kg.
With `O=c1[nH]cc(F)c(=O)[nH]1` [5-FU, 5-Fluorouracil], the “enhancement of antitumor drug effect (lethal cells relative to standard cells)” value in data set [1] (setting [10]) is recorded as “enhanced effects”. Also, in data set [3] (setting [9]), the “enhancement of antitumor activity” value is “enhanced”.
As for `O=C1c2c(O)ccc(O)c2C(=O)c2c(NCCNCCO)ccc(NCCNCCO)c21` [Mitoxantrone], in data set [1] (4-piperidino-piperidine precedently dosed at 2.5 and 50 μg/ml, mitoxantrone 0.05 μg/ml), the “enhancement of antitumor drug effect (lethal cells relative to standard cells)” value was “enhanced effects”. The “enhancement of antitumor activity” value in data set [2] was “enhanced”.
`N.N.[Cl][Pt][Cl]` [cisplatin]: the “enhancement of antitumor activity” value in data set [2] is “enhanced”. Also, in data set [5], the “cell killing effect, single dose” value is listed as “almost the same cell killing effect as that of the control group”.

By LD50 is commonly meant the dose expected to kill half of the subjects tested. Higher therefore signals lower toxicity.
